{"source": "paper PMC3358306", "about": "(PLoS ONE, 2012)", "target": "T1, afRio1 (Rio1 kinase) (Archaeoglobus fulgidus, UniProt O28471)", "T1 construct": "full-length", "T1 sequence (O28471 whole entry)": "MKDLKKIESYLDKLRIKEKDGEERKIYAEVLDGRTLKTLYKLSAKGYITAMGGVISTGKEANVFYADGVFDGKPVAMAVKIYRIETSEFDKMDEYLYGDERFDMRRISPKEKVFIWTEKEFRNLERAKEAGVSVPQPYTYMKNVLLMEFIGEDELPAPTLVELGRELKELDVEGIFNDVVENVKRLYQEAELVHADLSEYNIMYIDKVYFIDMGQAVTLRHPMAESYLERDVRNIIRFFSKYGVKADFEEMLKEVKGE", "assay": "thermal shift (Thermofluor), Tm […] to […] °C", "format": "binding", "data": [{"smiles": "NC(=O)c1cn([C@@H]2O[C@H](CO)[C@@H](O)[C@H]2O)c2ncnc(N)c12", "note": "[sangivamycin]", "values": [{"measurement": "thermal shift (Thermofluor), Tm 76 to 82 °C", "value": 82, "unit": "°C"}]}]}
